Earlier results in the PKSmart pharmacokinetics tables (Seal et al. 2025).

Experiment: Lombardo, Berellini, Obach 2018, Drug Metab Dispos 46:1466, doi 10.1124/dmd.118.082966
Details: human; for MRT / Vd / clearance / half-life: in vivo, iv; for fraction unbound: plasma

| Compound | MRT [h] | Vd [L/kg] | clearance [mL/min/kg] | half-life [h] | fraction unbound |
| --- | --- | --- | --- | --- | --- |
| CN1CCN(C(c2ccccc2)c2ccccc2)CC1 | 15.5 | 16.5 | 14.5 | 13.5 | – |
| CC(=O)N(CC[C@@](CCN1CCCCC1)(C(N)=O)c1ccccc1Cl)C(C)C | 7.9 | 2.6 | 5.43 | 12 | – |
| O=C(O)c1ccc(-n2nc(-c3ccccc3O)nc2-c2ccccc2O)cc1 | 4.07 | 0.2 | 0.84 | 4.05 | 0.004 |
| CC(C)(C)NC(=O)C1CC[C@H]2[C@@H]3C=CC4=CC(C(=O)O)CC[C@]4(C)[C@H]3CC[C@]12C (stereo not given in full) | 27 | 0.54 | 0.33 | 27 | – |
| CCN(CC)CCOC(=O)C(Cc1cccc2ccccc12)CC1CCCO1 (stereo not given) | 1.5 | 0.98 | 10.8 | 1.35 | 0.2 |
| CC(=O)NC(CS)C(=O)O (stereo not given) | 3 | 0.55 | 3.1 | 5.5 | 0.17 |
| COc1cc2c(N)nc(N3CCN(C(=O)OCC(C)(C)O)CC3)nc2c(OC)c1OC | 3.1 | 0.18 | 0.96 | 3.1 | – |
| COc1ccc2c(c1)c(CC(=O)O)c(C)n2C(=O)c1ccc(Cl)cc1 | 1.2 | 0.096 | 1.3 | 1.4 | – |
| C[N+]1(C)[C@@H]2CC(OC(=O)C(O)(c3cccs3)c3cccs3)C[C@H]1[C@@H]1O[C@@H]12 (stereo not given in full) | 42.3 | 32 | – | – | 0.28 |
| Cc1cc(-n2cccc2)c(S(C)(=O)=O)cc1C(=O)NC(=N)N | 2.3 | 1.1 | 8.2 | 2.2 | – |
| C=CCNc1nc(NCC=C)nc(N2CCN(C(c3ccc(F)cc3)c3ccc(F)cc3)CC2)n1 | 607 | 35.4 | 0.97 | 1340 | 0.01 |
| CC(=O)NC(CSSCC(N)C(=O)O)C(=O)NC(C)C(=O)NC(CCCNC(=N)N)C(=O)NC(CCCNC(=N)N)C(=O)NC(CCCNC(=N)N)C(=O)NC(C)C(=O)NC(CCCNC(=N)N)C(N)=O (stereo not given) | 19.9 | 1.98 | 1.67 | – | – |
| O=C(Cn1ccnc1[N+](=O)[O-])NCC(O)C(F)(F)F (stereo not given) | 3.86 | 0.69 | 3 | 3.45 | – |
| CC[C@@H](c1cccc(O)c1)[C@@H](C)CN(C)C | 3.62 | 4.64 | 21.3 | 2.39 | – |
| N[C@@]1(C(=O)O)CS(=O)(=O)[C@H]2C(C(=O)O)[C@H]21 (stereo not given in full) | 1.44 | 0.21 | 2.4 | 1.23 | – |
| N=C(N)NCCCC(NC(=O)C1CCCN1C(=O)C1CSSCCC(=O)NC(Cc2ccc(O)cc2)C(=O)NC(Cc2ccccc2)C(=O)NC(CCC(N)=O)C(=O)NC(CC(N)=O)C(=O)N1)C(=O)NCC(N)=O (stereo not given) | 3.6 | 0.3 | 1.4 | 3 | – |
| C#C[C@]1(O)CC[C@H]2[C@@H]3CC=C4CC(=O)CCC4[C@H]3C(=C)C[C@@]21CC (stereo not given in full) | 23.6 | 2.87 | 2 | 25 | 0.02 |
| CC(CCc1ccc2c(c1)OCO2)NCC(O)c1ccc(O)c(C(N)=O)c1 (stereo not given) | 8.2 | 7.9 | 16 | 11 | – |
| NC(=O)N1C(=O)C(C(=O)c2cccs2)c2cc(Cl)ccc21 (stereo not given) | 31.6 | 0.11 | 0.058 | 22.7 | 0.01 |
| COc1cc2c(cc1O)CCN[C@]21CS[C@@H]2c3c(OC(C)=O)c(C)c4c(c3[C@H](COC1=O)N1[C@@H]2[C@H]2c3c(cc(C)c(OC)c3O)C[C@@H]([C@@H]1O)N2C)OCO4 | 35 | 25 | 12 | 44 | 0.06 |
| COc1ccc(C[C@@H]2c3cc(OC)c(OC)cc3CC[N@+]2(C)CCC(=O)OCCCCCOC(=O)CC[N@@+]2(C)CCc3cc(OC)c(OC)cc3[C@H]2Cc2ccc(OC)c(OC)c2)cc1OC | 0.43 | 0.14 | 5.4 | 0.42 | 0.62 |
| CN1CCN(CCCCN2C(=O)CN(/N=C/c3ccc(-c4ccc(Cl)cc4)o3)C2=O)CC1 | 100 | 13 | 2.4 | 79 | 0.06 |
| C[C@@H](O)C1C(=O)N2C(C(=O)O)=C(SCCNC=N)C[C@H]12 (stereo not given in full) | 1.3 | – | 3 | 0.95 | – |
| CN(c1nccc(=O)[nH]1)C1CCN(c2nc3ccccc3n2Cc2ccc(F)cc2)CC1 | 6 | 0.38 | 1.03 | 9.6 | – |
| CC(C)(C)NC[C@H](O)COc1nsnc1N1CCOCC1 | 3 | 1.5 | 8.5 | 2.2 | – |
| CCCCC(C)(C)[C@@H](O)/C=C\[C@@H]1[C@H](C/C=C/CCCC(=O)O)[C@@H](Cl)C[C@@H]1O | 0.2 | 0.16 | 13.2 | 0.8 | – |
| Cc1onc(-c2ccccc2)c1C(=O)NC1C(=O)N2C(C(=O)O)C(C)(C)S[C@H]12 (stereo not given in full) | 0.5 | 0.19 | 6.3 | 0.7 | 0.07 |
